Experimental data taken from PMC5641551, “Chemical Proteomics for Target Discovery of Head-to-Tail Cyclized Mini-Proteins” (Frontiers in Chemistry, 2017).

Tests used:
[1] = system: myelin oligodendrocyte glycoprotein (MOG)-immunized mouse splenocytes; experiment: anti-proliferation assay of MOG-restimulated splenocytes from 2D2 mice; assay type: cell-based; conditions: summary in words; [T20K,W23Bpa]kB1 versus [T20K]kB1, 4 μM
Description: Biological integrity of probes was determined using their reported immunosuppressive activity (Grundemann et al., [2013]; Thell et al., [2016]). Briefly, activity was measured in isolated lymphocytes derived from self-donated human venous blood or mouse splenocytes derived from 2D2 myelin oligodendrocyte glycoprotein specific T-cell receptor transgenic mice on a C57Bl/6 background [C57Bl/6-Tg(Tcra2D2,Tcrb2D2) Kuch/J]. These mice develop spontaneous experimental autoimmune encephalomyelitis, a mouse model of multiple sclerosis. Bioactivity was assessed by T-cell proliferation using FACS or cytokine concentration analysis of interleukin-2 in the supernatant of ex vivo re-stimulated splenocytes for 72 h using an ELISA kit and antibodies from eBioscience® (Grundemann et al., [2013]; Thell et al., [2016]). All experiments were approved according to the European Community rules of animal care with the permission of the Austrian Ministry of Science (BMWF-66.009/0241-II/3B/2011).
If not stated in detail for the respective single experiment the statistical tests were performed using GraphPad Prism 5.04 (GraphPad, La Jolla, CA) using one-way ANOVA with Bonferonni or Dunnett's Post-hoc test. […] Silver stained gel lanes were evaluated by loading various amounts, and then the amount with optimized staining contrast was loaded and used for in-gel protein digestion. […]

[2] = system: 14-3-3 proteins / 25 kDa protein band in murine splenocyte lysates; experiment: photo-affinity pull down, splenocyte lysate, with competitors; assay type: binding, mouse; conditions: for competition effect for 14-3-3 proteins (order): competitors at 100-fold molar excess versus bait [T20K,W23Bpa]kB1, in-gel digestion and proteomics
Description: (§1) Splenocytes or Jurkat cells were lysed with 25 mM Tris-HCl pH 7.4, 40 mM KCl, 2.5 mM MgSO4 2.5 mM CaCl2, 2% (v/v) glycerol, 1 mM EDTA under repeated freeze-thaw cycles and 10 min sonification. All experiments were performed in buffer with 1x complete protease inhibitor cocktail (Hoffman-La Roche, Basel, Switzerland). Cell membranes and debris were pelleted for 30 min at 16,000 × g and the supernatant corresponds to the “soluble cell lysate.” Protein concentration was determined using a bicinchoninic acid assay kit (Thermo Scientific) and DTT (1 mM) was added to keep redox potential constant during binding experiments. Photo-affinity pull down samples were submitted to denaturing sodium dodecyl sulfate polyacrylamide gel electrophoresis (PAGE). For immunoblotting according to earlier published protocols (Gruber et al., [2007]; Bergmayr et al., [2013]) proteins were semi-dry transferred onto a nitrocellulose membrane 0.45 μM (Amersham Protran, GE Healthcare, Austria) using a Fast Semi-dry blotter (Bio-Rad) at 0.25 mA per gel for 1 h. Primary rabbit anti-GFP antibody (1:5,000) was from Invitrogen (A6455), rabbit anti-GST antibody (1:2,500) from Abcam (ab9085), and mouse anti-human calcineurin subunit A antibody (1:2,000) clone BE2.1 from eBioscience. Secondary ECL anti-mouse (NA931V) or ECL anti-rabbit (NA934VS) IgG antibodies (1:10,000) were conjugated with horse radish peroxidase (GE Healthcare). Chemo-luminescence signals were detected on an imaging system FluorChem HD2 (Alpha Innotech, CA, United States). For silver staining protein gels were treated immediately after electrophoresis with fixing solution EtOH/ddH2O/acetic acid 50/40/10% (v/v/v) for 20 min. Gels had to be washed acid free, first with 50% (v/v) EtOH for 10 min and with ddH2O for 2 h. Gels were exposed to sensitization buffer 0.025% Na2S2O3 in ddH2O for 3 min, followed by 2 min wash with ddH2O. Gels were silver loaded using a 0.15% AgNO3 solution for 45 min in the dark. The protein bands were stained in development buffer formaldehyde/Na2CO3 0.04/2% (v/w) under rigorous shaking. The reaction was quenched with 5% (v/v) acetic acid solution and the gels were stored until further processing in the stopping buffer at 4°C. Pixel quantification was carried out using ImageJ v1.47 (National Institute for Health).
(§2) Biotin-LC-LC-labeled (ThermoFisher) peptides (1–5 nmoles) with or without (non-biotinylated) competitor (20–100-fold molar excess) were incubated with Jurkat cell or murine splenocyte cell lysates (150–500 μg proteins) for 2 h at 4°C in the presence of protease inhibitors. UV-activation of photo-crosslinking moiety benzophenone was induced by irradiation at 360 nm on ice for 15 min (Stratalinker, Stratagene, CA, United States). […]

GST-tagged 14-3-3β = experiment: co-precipitation of GST-tagged 14-3-3β with cyclotide probe and competitors; assay type: binding; conditions: immunoblot and far Western blot; 2 h at 4°C; competitors 150–500-fold molar excess
Description: as §1
as §2, with “([…])” for “(non-biotinylated) competitor (20–100-fold molar excess)”

14-3-3 proteins = conditions: cited from earlier work
Description: There are generally two types of 14-3-3 ligands: (i) inhibitors or (ii) stabilizers. […] In contrast, 14-3-3 stabilizers enforce a protein-protein interaction and they may account for an increased retention of 14-3-3 complexed proteins in the cytosol or other cellular compartments (Ottmann, [2013]; Bier et al., [2015]).

[3] = system: Foxo3a transcriptional activity in HEK293 cells co-transfected with 14-3-3β; experiment: Foxo3a luciferase reporter gene assay; assay type: cell-based, human; conditions: for Foxo3a transcriptional activity, effect in words: HEK293, luciferase reporter, PI3K inhibitors as controls, peptide 4 h
Description: Jurkat cells were cultured in RPMI medium containing phenol red supplemented with 10% (v/v) heat deactivated fetal calf serum and 100 U/mL penicillin/streptomycin at 37°C in humidified atmosphere of 5% CO2. HEK293 cells were cultured in Dulbecco's modified eagle high glucose medium supplied with 10% fetal calf serum and 100 U per mL penicillin/streptomycin. Cell transfection was carried out by Jetprime® according to the manufacturer's recommendation (Polyplus, Illkirch, France).
Forkhead box protein 3a induced transcriptional activity was measured on transiently transfected HEK293 cells (5 × 10^4). The reporter plasmid encoding luciferase under the control of a promotor containing forkhead responsive elements and the human p-Foxo3a-HA plasmid were gifts of Michael Greenberg provided by the Addgene consortium (#1787 and #1789; Brunet et al., [1999]). The plasmids encoding the mouse p-14-3-3 beta-GST protein and the functional forkhead transcription factor were used in a 1.5-fold amount compared to the reporter construct. The transfection was completed after 6 h and the cells could recover for 4 h in growth medium. The cells were serum starved using 1% (v/v) fetal bovine serum in phenol red free DMEM medium supplemented with antibiotics overnight. After 4 h peptide and 24 h of fusicoccin-A treatment the luciferase assay was developed using luciferase development kit from Promega E151 (Wisconsin, United States) and the luminescence was measured on a synergy H4 plate reader (Biotek). Control compounds were the PI3K inhibitors wortmannin and LY294002 (both Sigma Aldrich). The recorded data were normalized to the non-treated control sample. Significance and IC50-values were calculated from at least two biological replicates using GraphPad Prism. Data analysis was performed by non-linear regression using a four parameter Hill equation.
If not stated in detail for the respective single experiment the statistical tests were performed using GraphPad Prism 5.04 (GraphPad, La Jolla, CA) using one-way ANOVA with Bonferonni or Dunnett's Post-hoc test. The number of technical and biological repeats was justified by analysis of error and reproducibility of results. Significance threshold P < 0.05 was applied to all experiments. For the data shown in Figure 3 three individuals for the in vivo experiments were used and each data point was performed in three technical replicates. The pull down experiments shown in Figures 4A,B were performed a single time and the data represent two technical repeats. Gel lanes were loaded with single (1x) or doubled (2x) amount of pull down proteins for better visibility. The data illustrated in Figures 4C,D were performed in two independent experiments. Silver stained gel lanes were evaluated by loading various amounts, and then the amount with optimized staining contrast was loaded and used for in-gel protein digestion. The pull down experiments shown in Figures 4E,F were performed a single time. The Western Blots and the pull down experiment shown in Figure 5 represent experiments in three and two independent experiments, respectively. Experiments in a well-based format (Figure 6) were performed with three technical and two biological replicates. All data illustrated in this manuscript show the mean ± standard deviation (SD) unless stated otherwise. The MS based protein identifications were performed in two technical analyses for each sample.
Figure 6 Foxo3a luciferase reporter assay. The modulation of the Akt/PI3K/Foxo3a pathway by the cyclotide [T20K]kB1 binding to 14-3-3 proteins was investigated. HEK293 cells were transiently transfected with Foxo3a-Luc plasmid encoding luciferase under a promotor with Foxo response elements, Foxo3a and 14-3-3β. For control the reporter plasmid (basal value) was also co-transfected with the single functional effector proteins 14-3-3β or Foxo3a. Cells were treated under starving conditions with peptide or fusicoccin-A (FC-A) for 4 h or 24 h, respectively. […]

CGETCVGGTCNTPGCKCSXPVCTRNGLPV (bicyclic or more) [[T20K,W23Bpa]kB1]
biological activity of probe [1]: retained biological activity
competition effect for 14-3-3 proteins (order) [2]: competition effect in the order [T20K]kB1 < [T20K,W23Bpa]kB1 < R18
binding of probe [T20K,W23Bpa]kB1 to 14-3-3β in presence of competitor (GST-tagged 14-3-3β): significantly altered

PHCVPRDLSWLDLEANMCLP [R18, reference compound]
effect on intensity of protein bands ([2]; competitor at 100-fold molar excess, silver stained gel): did not alter the intensity of protein bands throughout the sample
competition effect for 14-3-3 proteins (order) [2]: competition effect in the order [T20K]kB1 < [T20K,W23Bpa]kB1 < R18
binding of probe [T20K,W23Bpa]kB1 to 14-3-3β in presence of competitor (GST-tagged 14-3-3β): significantly altered
effect as 14-3-3 inhibitor on Foxo3a (14-3-3 proteins; ref Arrendale et al., 2012): increase Foxo3a nuclear import to induce pro-apoptotic transcriptional activity

C=CC(C)(C)OC[C@H]1O[C@H](O[C@@H]2C3=C([C@H](C)COC(C)=O)C[C@H](O)[C@]3(C)/C=C3/[C@@H](COC)CC[C@H]3[C@@H](C)[C@H]2O)[C@H](O)[C@@H](OC(C)=O)[C@@H]1O [fusicoccin-A, reference compound]
IC50 ([3]; HEK293 transfected with Foxo3a-Luc, Foxo3a and 14-3-3β, fusicoccin-A treatment 24 h, IC50 ± SD, two independent experiments, four parameter Hill fit, read-out: IC50, reduction of luciferase signal): 39.1 ± 2.34 µM
effect as 14-3-3 stabilizer (14-3-3 proteins; ref Skwarczynska et al., 2013, Bier et al., 2015, Milroy et al.): enforce protein complex formation of 14-3-3s with transcription factors

O=c1cc(N2CCOCC2)oc2c(-c3ccccc3)cccc12 [LY294002, reference compound]
Foxo3a transcriptional activity, effect in words [3]: increased transcriptional activity

NC(=O)c1ncn([C@@H]2O[C@H](CO)[C@@H](O)[C@H]2O)c1O [mizoribine]
modulation of 14-3-3 protein function (14-3-3 proteins; ref Kawasaki, 2009): modulate 14-3-3 protein function

COC[C@H]1OC(=O)c2coc3c2[C@@]1(C)C1=C(C3=O)[C@@H]2CCC(=O)[C@@]2(C)C[C@H]1OC(C)=O [wortmannin, reference compound]
Foxo3a transcriptional activity, effect in words [3]: increased transcriptional activity
